Results as given in PMC11206988, “Study on the Effect of Pharmaceutical Excipient PEG400 on the Pharmacokinetics of Baicalin in Cells Based on MRP2, MRP3, and BCRP Efflux Transporters” (Pharmaceutics, 2024).

What was measured:
[1] = Pharmacokinetic study of baicalin in HepG2 cells (intracellular concentrations by UPLC-MS/MS); type: in vitro ADME, human; details: human, intracellular; for AUC(0-t) at 100 μM / Cmax at 100 μM / half-life at 100 μM: HepG2 cells
Method: (§1) The samples were quantified by UPLC-MS/MS, which consisted of a Dionex Ultimate 3000 UPLC system (Thermo Fisher Scientific, Waltham, MA, USA) and a triple quadrupole tandem mass spectrometer (Thermo Fisher Scientific, Waltham, MA, USA). The mass spectrometry was performed using an ESI ion source and in positive ion mode. The chromatograms are shown in Figure S1 of the Supplementary Materials. The samples were analyzed by a Waters XBridge BEH C18 column (2.1 × 100 mm). Mobile phase A consists of acetonitrile, while mobile phase B consists of water containing 0.1% formic acid. The elution program was as follows: B was initially 90%, 0 to 9 min B decreased from 90% to 27%, and 9.1 min to 12 min increased from 27% to 90% B. The flow rate of the mobile phase was 0.3 mL/min, the temperature of the automatic injector was 5 °C, and the injection volume was 10 μL. The m/z for BG and B6G was 447 → 271, for baicalein m/z 271 → 123, and for genistein (IS) m/z 271 → 153. Other mass spectrometry parameters included sheath gas (Arb) pressure, 20 psi, and auxiliary gas (Arb) pressure, 2 psi; source voltage, 4.8 KV, and capillary voltage, 2.5 KV; and ion-transfer-tube temperature, 375 °C, and atomization temperature, 275 °C.
(§2) HepG2 cells were cultured at a density of 1×10^5 cells/mL in 12-well plates for 24 h to facilitate the conduct of cellular pharmacokinetic experiments. The old medium was aspirated and discarded, the wells were rinsed twice with PBS, and 1 mL of 100 μM baicalin and baicalin + PEG400 (0.25%, 0.5%, and 1%) was added into 12-well plates to initiate the timer. The culture was terminated after 0.25 h, 0.5 h, 1 h, 2 h, 4 h, 6 h, 8 h, 10 h, 12 h, and 24 h, respectively. Upon reaching the designated time for administration, the cell culture medium was removed, and the wells were washed with 1 mL of cold PBS solution. Subsequently, 240 μL of ultra-pure water were added to each well, and the sample was stored at −80 °C until analysis. The sample was subjected to sonication in an ice bath for 10 min in order to lyse the cells, thereby enabling the determination of the accumulated drug concentration within the cells. Subsequently, 20 μL of the cell lysate was collected, and the protein concentration was quantified using a BCA kit for normalization.
(§3) After repeated freeze-thaw lysis, 100 μL of cell samples were taken, and 300 μL of 0.2% formic acid acetonitrile (containing 200 ng/mL genistein) were added to the vortex for 10 min to precipitate proteins and then centrifuged at 14,000 r/min for 10 min. Then the supernatant was blown dry under nitrogen at 40 °C and then reconstituted with 200 μL of methanol and centrifuged at 14,000 rpm for 10 min. The supernatant was subjected to UPLC-MS/MS analysis.

HepG2 cells = assay: as above; type: in vitro ADME, human; details: HepG2 cells
Method: as §1, §2, §3

[2] = HepG2 cells given 100 μM baicalin + H PEG400 (1%)
[3] = HepG2 cells given 100 μM baicalin + L PEG400 (0.25%)
[4] = HepG2 cells given 100 μM baicalin + M PEG400 (0.5%)
[5] = HepG2 cells given 100 μM baicalin alone (group BG, control)

SMILES: O=C(O)[C@H]1O[C@@H](Oc2cc3oc(-c4ccccc4)cc(=O)c3c(O)c2O)[C@H](O)[C@@H](O)[C@@H]1O [BG, Baicalein-7-O-β-D-glucuronide]
- AUC(0-t) at 100 μM [1, 2]: 130 ± 5.26 µg·h/mL
- Cmax at 100 μM [1, 2]: 10800 ± 350 ng/mL
- half-life at 100 μM [1, 2]: 5.43 ± 0.91 h
- AUC(0-t) at 100 μM [1, 3]: 107 ± 2.22 µg·h/mL
- Cmax at 100 μM [1, 3]: 10200 ± 1480 ng/mL
- half-life at 100 μM [1, 3]: 9.91 ± 3.76 h
- AUC(0-t) at 100 μM [1, 4]: 112 ± 3.99 µg·h/mL
- Cmax at 100 μM [1, 4]: 11200 ± 1500 ng/mL
- half-life at 100 μM [1, 4]: 6.02 ± 4.23 h
- Cmax at 100 μM [1, 5]: 7840 ± 110 ng/mL
- half-life at 100 μM [1, 5]: 6.77 ± 5.92 h
- AUC(0-t) at 100 μM ([1]; HepG2 cells given 100 μM baicalin alone (group BG, control), 0.25-24 h): 76 ± 2.57 µg·h/mL
- Tmax at 100 μM [1, 5]: 6 h
- AUC0–t increase compared with the control group (HepG2 cells; baicalin + high PEG400 (1%) vs baicalin alone): 1.72 fold
- AUC0–t increase compared with the control group (HepG2 cells; baicalin + low PEG400 (0.25%) vs baicalin alone): 1.41 fold
- AUC0–t increase compared with the control group (HepG2 cells; baicalin + medium PEG400 (0.5%) vs baicalin alone): 1.48 fold
